In this test the test system is calcium channels. The test is classed as cell-based, rats. The note with it: read-out: IC50 for blocking calcium channels, pH 7.4.

Like-named read-outs stand apart in the source and are kept apart here.

In general, IC50 refers to the midpoint of a concentration-inhibition curve. On to `COc1ccc(CCN(C)CCCC(C#N)(c2ccc(OC)c(OC)c2)C(C)C)cc1OC` (centres unmarked) [Verapamil], for which the IC50 is 4.8 µM.
Regarding “H2 N-Glu-Ala-Cys-Ala-Gly-Ala-Tyr-Lys-Ser-Cys-Asp-Lys-Val-Lys-Cys-Cys-His-Asp- Arg-Arg-Cys-Arg-Cys-Asn-lle-Ala-Met-Asp-Asn-Cys-Val-Cys-Lys-Leu-Phe-Tyr-Cys-Glu-Leu-Phe-Gly-Thr-Cys-Asp-Arg-Leu-Lys-Pro [peptide J2]”, the IC50 (cerebellar granule cells from 8 day old rats, fura2 fluorescence, 37° C.) is less than 0.2 µM.

Values taken from patent publication US5599559A, “Calcium channel blocking polypeptide from agelenopsis aperta and therapeutic methods employing it” (priority 1995, dated 1997).
